Among the data in PubChem BioAssay AID1648 (Sanford-Burnham Center for Chemical Genomics, 2009) are Kd values, retold here.

Activity calls are given as the source filed them. No rule for the calls is given here.

Chain of Serine/threonine-protein kinase mTOR (Homo sapiens) (P42345 2015-2114): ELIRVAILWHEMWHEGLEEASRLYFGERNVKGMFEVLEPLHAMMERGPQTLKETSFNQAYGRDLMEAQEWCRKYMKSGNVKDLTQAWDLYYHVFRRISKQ

The experiment concerns the target Serine/threonine-protein kinase mTOR (Homo sapiens) (UniProt P42345). As to the kind of experiment: binders of mTOR FRB domain, biophysical, NMR (AID 1648). The conditions noted are these: NMR binding to FRB domain, chemical shift.
On to `Cc1csc(NC(=O)c2cccs2)n1`, for which the Kd is > 4 mM (inactive).

Consider `O=C1CCC(=O)N1c1ccc(F)cc1`, for which the Kd is > 4 mM (inactive).

Turning to `CCSc1nc2ccccc2n1CC(N)=O`, the Kd was > 4 mM (inactive).

For the compound `O=C(O)c1cccnc1Oc1ccccc1`, the Kd was > 4 mM (inactive).

With `CC(N)C(=O)c1ccco1` (stereo unspecified), the Kd is > 4 mM (inactive).

As for `CCn1c(C)c(C(C)=O)c(N2CCN(C)CC2)nc1=S`, the Kd was > 4 mM (inactive).

On to `OC(c1ccccc1)c1ccccn1` (stereo unspecified), for which the Kd is > 4 mM (inactive).

With `Cn1nnc2cc(C(=O)NC3=NCCS3)ccc21`, the Kd was > 4 mM (inactive).

As for `O=c1cccc2n1C[C@H]1CNCC2C1`, the Kd was > 4 mM (inactive).

For `NC(N)=NOCC[C@H](N)C(=O)O`, the Kd is > 4 mM (inactive).

On to `C=C(C)[C@H]1CC=C(C(=O)O)CC1`, for which the Kd was > 4 mM (inactive).

As for `Oc1cccc(N2CCOCC2)c1`, the Kd is > 4 mM (inactive).

For the compound `Cc1n[nH]c(C)c1NC(=O)c1cccc(F)c1`, the Kd is > 4 mM (inactive).

In the case of `CC(=O)NN1C(=O)/C(=C\c2ccc(O)cc2)SC1=S`, the Kd was > 4 mM (inactive).

As to `COc1ccc(-c2cc(=O)c3cc(OC)ccc3o2)cc1`, the Kd was > 4 mM (inactive).

Regarding `Cc1cc(O)cc(O)c1C(=O)O`, the Kd was > 4 mM (inactive).

As for `Clc1ccc(SCCn2cncn2)cc1`, the Kd is > 4 mM (inactive).

Consider `O=C(O)Cc1nc(-c2ccncc2)n[nH]1`, for which the Kd is > 4 mM (inactive).

Regarding `NC(=O)CN1CCCCCC1=O`, the Kd is > 4 mM (inactive).

As to `NC(=O)C(=O)NCc1ccc(Cl)cc1`, the Kd was > 4 mM (inactive).

For the compound `CN1C2CC(OC(=O)[C@H](CO)c3ccccc3)C[C@H]1[C@H]1OC21` (stereo partly specified), the Kd was > 4 mM (inactive).

As for `Cc1nc(SCC#N)c2c3c(sc2n1)CCC3`, the Kd was > 4 mM (inactive).

With `CC(=O)NC1=C(N(C)C)C(=O)c2ccccc2C1=O`, the Kd was > 4 mM (inactive).

Take `O=C1NNC(=O)C2C3c4ccccc4C(c4ccccc43)C12` (stereo unspecified): the Kd was > 4 mM (inactive).

Turning to `O=C(Nn1cnnc1)c1ccccc1-c1ccccc1`, the Kd is > 4 mM (inactive).

Take `Cc1c(C(=O)OC(C)C)[nH]c2c1C(=O)CCC2`: the Kd is > 4 mM (inactive).

Regarding `O=C(O)C1Cc2ccccc2N1` (stereo unspecified), the Kd is > 4 mM (inactive).

`O=C1C=CC2=C3c4cc(O)c(O)cc4C[C@@]3(O)COC2=C1`: the Kd was > 4 mM (inactive).

For the compound `O=C(Oc1ccc2c(c1)OCC2=O)c1ccccc1`, the Kd is > 4 mM (inactive).

As for `CC(C)C1COc2cc3oc(=O)ccc3cc2O1` (stereo unspecified), the Kd is > 4 mM (inactive).

Take `CCNC(=S)Nc1c(C)n(C)n(-c2ccccc2)c1=O`: the Kd was > 4 mM (inactive).

Take `O=c1[nH]c(N2CCOCC2)nc2ccccc12`: the Kd was > 4 mM (inactive).

As to `O=C(CSc1ccnc(=O)[nH]1)NCc1ccco1`, the Kd was > 4 mM (inactive).

For the compound `Cc1cc(C)n2nc(Cc3ccccc3)nc2n1`, the Kd was > 4 mM (inactive).

Regarding `Cc1n[nH]c(=O)nc1N1CCN(c2ccccc2)CC1`, the Kd is > 4 mM (inactive).

`COC(=O)c1cccc(N)c1`: the Kd is > 4 mM (inactive).

For `O=C1CSC(=O)N1c1cccc(O)c1`, the Kd is > 4 mM (inactive).

Consider `COc1cc(C(=S)N2CCC(C(N)=O)CC2)ccc1O`, for which the Kd was > 4 mM (inactive).

In the case of `COC(=O)[C@@]1(C)CCC[C@]2(C)c3ccc(O)c(C(C)C)c3CCC12` (stereo partly specified), the Kd was > 4 mM (inactive).

For `O=C(NN1C(=O)CSC1=S)c1ccccc1`, the Kd was > 4 mM (inactive).

For `OC1CCNC2CCCCC12` (stereo unspecified), the Kd was > 4 mM (inactive).

In the case of `Cc1nnc(SCc2cccs2)[nH]c1=O`, the Kd was > 4 mM (inactive).

As to `CC(=O)Oc1ccc(O)cc1`, the Kd is > 4 mM (inactive).

For the compound `CNC(=O)Cn1c(=O)n(C)c2ccccc21`, the Kd was > 4 mM (inactive).

On to `NCc1c[nH]c2ccccc12`, for which the Kd is > 4 mM (inactive).

Take `Cn1nc(C(=O)NCc2cccnc2)c2ccccc2c1=O`: the Kd was > 4 mM (inactive).

Regarding `O=C1c2cccnc2C(=O)N1Cc1ccc2c(c1)OCO2`, the Kd is > 4 mM (inactive).

For `O=C(O)c1cccnc1`, the Kd was > 4 mM (inactive).

As for `COc1ccc(-c2cc3nc4n(c(=O)c3s2)CCC4)cc1`, the Kd was > 4 mM (inactive).

For `C[C@@H]1CC[C@@]23CCC4(C)[C@@](C=CC5[C@@]6(C)CC[C@H](O)C(C)(C)C6CC[C@]54C)(OC2=O)C3[C@H]1C` (stereo partly specified), the Kd was > 4 mM (inactive).

With `N#Cc1nc(N2CCCCC2)nc(N2CCOCC2)n1`, the Kd is > 4 mM (inactive).

Consider `Cc1cc(N2CCN(C)CC2)ncn1`, for which the Kd was > 4 mM (inactive).

Regarding `CS(=O)(=O)Nc1ccccc1C(=O)c1ccccc1`, the Kd is > 4 mM (inactive).

Turning to `O=C(O)c1ccc(-c2ccccn2)s1`, the Kd was > 4 mM (inactive).

With `O=C(Nc1ccon1)c1ccc(Cl)s1`, the Kd was > 4 mM (inactive).

As for `CCOC(=O)c1cc2ccccc2oc1=O`, the Kd was > 4 mM (inactive).

In the case of `COc1ccc(NC(=O)C2CC(=O)N=C(N)S2)cc1` (stereo unspecified), the Kd is > 4 mM (inactive).

As for `O=c1[nH]c(=S)c2c(n1-c1ccccc1)CCC2`, the Kd is > 4 mM (inactive).

On to `Nc1cccc(C(=O)c2ccccc2)c1`, for which the Kd is > 4 mM (inactive).

Take `CS(=O)(=O)N1CCN(C(=O)c2ccccc2)CC1`: the Kd is > 4 mM (inactive).

For the compound `Cc1c(C)[n+]([O-])c(-c2ccc([N+](=O)[O-])cc2)n1O`, the Kd is > 4 mM (inactive).

`Cc1oc(S(=O)(=O)N2CCCCC2)cc1C(=O)O`: the Kd was > 4 mM (inactive).

With `NC(=O)c1ccccc1NC(=O)c1cccnc1`, the Kd is > 4 mM (inactive).

Consider `O=C(NCC1CCCCC1)c1ccco1`, for which the Kd was > 4 mM (inactive).

As to `O=C(Nc1cccc(O)c1)c1ccccc1`, the Kd is > 4 mM (inactive).

On to `CCOC(=O)CC1Sc2ccccc2NC1=S` (stereo unspecified), for which the Kd was > 4 mM (inactive).

With `COc1cccc(NC(=O)c2cccs2)c1`, the Kd was > 4 mM (inactive).

Regarding `NC1=NN(c2ccccc2)C(=O)C1`, the Kd was > 4 mM (inactive).

Consider `COc1ccc(C)cc1S(=O)(=O)N1CCCCC1`, for which the Kd was > 4 mM (inactive).

As for `N#Cc1c[nH]n2c(=O)cc(Cc3ccccc3)nc12`, the Kd was > 4 mM (inactive).

Take `COc1cc(-c2csc(C)n2)ccc1O`: the Kd is > 4 mM (inactive).

`O=C1CCC(=O)N1c1ccc(O)cc1`: the Kd was > 4 mM (inactive).

Turning to `COC(=O)Cn1c2ccccc2c2nc(C)sc21`, the Kd is > 4 mM (inactive).

With `Cc1cc(C(=O)Nc2sc(C)c(C)c2C#N)no1`, the Kd was > 4 mM (inactive).

For the compound `O=c1cnnc(Nc2ccc(O)cc2)[nH]1`, the Kd was > 4 mM (inactive).

In the case of `COc1ccccc1NC(N)=S`, the Kd is > 4 mM (inactive).

`Cc1c(C(=O)N2CCOCC2)oc2c1C(=O)CC(C)(C)C2`: the Kd was > 4 mM (inactive).

Regarding `COc1cc(C(=O)O[C@H]2CC[C@@]3(C)[C@@H]4CC[C@H]5[C@]6(O)C[C@H](O)[C@@]7(O)[C@@H](CN8C[C@@H](C)CC[C@H]8[C@@]7(C)O)[C@]6(O)C[C@@]53OC24O)cc(OC)c1OC`, the Kd was > 4 mM (inactive).

For `Nc1ccc(-c2csnn2)cc1`, the Kd was > 4 mM (inactive).

In the case of `Cc1oc(-c2ccccc2)nc1CC(=O)O`, the Kd was > 4 mM (inactive).

`NC(=O)C1CCN(C(=O)c2ccccc2F)CC1`: the Kd was > 4 mM (inactive).

Consider `COc1c2ccoc2cc2oc(C)cc(=O)c12`, for which the Kd was > 4 mM (inactive).

As to `COc1ccc2[nH]cc(CN(C)C)c2c1`, the Kd was > 4 mM (inactive).

With `Cc1c(C(=O)O)cnn1-c1ccccc1`, the Kd was > 4 mM (inactive).

Turning to `O=C(O)C1CCN(S(=O)(=O)c2cccs2)CC1`, the Kd was > 4 mM (inactive).

Turning to `O=C(NC1=NCCS1)c1ccc(Cl)s1`, the Kd is > 4 mM (inactive).

Regarding `NC(=O)CSc1ccccn1`, the Kd was > 4 mM (inactive).

For the compound `O=C1NC(=O)/C(=C/c2ccc(O)cc2)N1`, the Kd is > 4 mM (inactive).

Consider `CC1(C)C(=O)CC[C@@]2(C)C1C[C@@H](O)[C@@]1(C)C3=CC(=O)O[C@@H](c4ccoc4)[C@]3(C)CCC21` (stereo partly specified), for which the Kd is > 4 mM (inactive).

As for `CC(C)(C)NC(=O)N1CCC(C(=O)O)CC1`, the Kd is > 4 mM (inactive).

Regarding `CN1C(=O)c2ccc(C(=O)NCc3ccccc3)cc2C1=O`, the Kd was > 4 mM (inactive).

`Cc1ccc2[nH]cc(CCN)c2c1`: the Kd is > 4 mM (inactive).

As for `C/C(N)=C/C(=O)N1CCCCC1`, the Kd was > 4 mM (inactive).

On to `OCCN1CCN(C(=S)c2ccc(Cl)cc2)CC1`, for which the Kd was > 4 mM (inactive).

In the case of `CCOC(=O)c1csc(N)n1`, the Kd was > 4 mM (inactive).

Consider `O=C(O)c1ccc(-n2cccc2)cc1`, for which the Kd is > 4 mM (inactive).

As for `OC[C@@H](O)[C@@H](O[C@@H]1O[C@H](CO)[C@@H](O)[C@H](O)[C@H]1O)[C@H](O)[C@@H](O)CO`, the Kd was > 4 mM (inactive).

As for `OCC(O)Cc1ccc2c(c1)OCO2` (stereo unspecified), the Kd is > 4 mM (inactive).

As to `CCN1CCC(NC2CCC(O)CC2)CC1` (stereo unspecified), the Kd is > 4 mM (inactive).

Regarding `O=C(O)C1COc2ccccc2C1` (stereo unspecified), the Kd is > 4 mM (inactive).

For the compound `C=C1CSc2nc(=O)c3c(C)c(C)sc3n21`, the Kd was > 4 mM (inactive).

For `Cc1nn2c(nc1=O)SCC2(O)c1ccccc1` (stereo unspecified), the Kd was > 4 mM (inactive).

With `CC(=O)c1cc(C)ccc1O`, the Kd was > 4 mM (inactive).

`NCc1cn2ccccc2n1`: the Kd is > 4 mM (inactive).

Regarding `COc1cccc(OC)c1C(=O)N1CCOCC1`, the Kd was > 4 mM (inactive).

As to `NC(=O)CSc1ncnc2ccccc12`, the Kd is > 4 mM (inactive).
